Results on 16 compounds are retold here after patent US20090318690A1 (priority 2006, published 2009).

For one experiment, the target named is T1, acetylcholine esterase (Rattus norvegicus, UniProt P37136).
T1 construct: a centrifugation supernatant of a male Wistar rat cerebral homogenate as an acetylcholine esterase source; from tissue; host or cells: male Wistar rat cerebrum, Triton X-100 homogenate supernatant
T1 sequence (P37136 32-614): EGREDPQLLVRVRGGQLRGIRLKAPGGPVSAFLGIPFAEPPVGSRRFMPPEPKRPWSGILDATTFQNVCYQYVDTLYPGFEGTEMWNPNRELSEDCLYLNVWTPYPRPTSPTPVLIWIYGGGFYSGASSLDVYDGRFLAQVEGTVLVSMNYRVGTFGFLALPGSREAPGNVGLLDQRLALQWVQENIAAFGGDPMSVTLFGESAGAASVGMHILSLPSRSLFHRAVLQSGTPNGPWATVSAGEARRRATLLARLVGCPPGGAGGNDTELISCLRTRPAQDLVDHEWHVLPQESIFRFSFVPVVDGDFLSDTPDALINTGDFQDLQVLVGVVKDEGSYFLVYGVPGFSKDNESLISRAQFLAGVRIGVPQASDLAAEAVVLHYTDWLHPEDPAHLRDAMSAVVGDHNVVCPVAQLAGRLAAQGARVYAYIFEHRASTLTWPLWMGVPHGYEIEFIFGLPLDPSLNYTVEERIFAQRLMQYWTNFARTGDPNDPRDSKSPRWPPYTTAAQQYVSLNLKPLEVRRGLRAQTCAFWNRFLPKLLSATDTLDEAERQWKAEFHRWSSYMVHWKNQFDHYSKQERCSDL
The experiment in a line: Acetylcholine esterase inhibitory activity (Ellman method). Type of experiment: biochemical. The note with it: supernatant of male Wistar rat cerebral homogenate; acetylthiocholine/DTNB, absorbance 412 nm; read-out: Acetylcholine esterase inhibition (IC50). Here is the method: Esterase activity was measured according to the method of Ellman et al. (Biochem. Pharmacol., 1961, 7, 88-95) using a centrifugation supernatant of a male Wistar rat cerebral homogenate as an acetylcholine esterase source. First, a sample dissolved in dimethyl sulfoxide (DMSO) (10 mM) was dissolved in water to 30 μM, and eight serial dilutions were prepared at a common ratio of 3 with 30 μM as a highest concentration. Next, 18 times weight of a phosphate buffer [0.1 M phosphate buffer (0.1 M Na2HPO4, prepared from 0.1 M KH2PO4; pH 8.0) with 0.5% Triton X-100] was added to the rat cerebrum. The mixture was homogenized and centrifuged at 3000 rpm for five minutes. The supernatant was diluted 30-fold with a phosphate buffer (pH 8.0) and dispensed to a 96-well plate at 165 μL/well. 6 μL of the diluted sample was added, followed by preincubation at room temperature for about 10 minutes. Thereafter, 9 μL of a reaction mixture [10 mM 5,5′-dithiobis(2-nitrobenzoic acid) (DTNB)/0.1 M phosphate buffer (pH 7.0) with 6 μL of 0.15% NaHCO3+90 mM acetylthiocholine iodide/1 μL of H2O+2 μL of 0.1 M phosphate buffer (pH 8.0)] was added and the absorbance (412 nm) of anions (yellow) of 5-thio-2-nitrobenzoic acid generated by reaction of the produced thiocholine with DTNB anions was measured at room temperature. The acetylcholine esterase activity was determined from the change in absorbance between two minutes and four minutes after the start of the reaction. The inhibition rate (%) of the test compound was determined based on the acetylcholine esterase activity when the compound was not added as 100% and the 50% inhibition concentration (IC50) was calculated.

Experiment [1] has as its target T2, serotonin transporter (SERT) (Rattus norvegicus, UniProt P31652).
T2 construct: The rat cerebral cortex was homogenized in ice-cold 0.32 M sucrose; from tissue; host or cells: rat cerebral cortex membrane fraction
Description: Serotonin transporter binding inhibitory activity ([3H]paroxetine binding, rat cerebral cortex membrane fraction). How it is done:
Affinity of the test substance to a serotonin transporter (SERT) was determined by a test of inhibition of binding of [^3H]paroxetine selectively binding to SERT to a rat cerebral cortex membrane fraction by the test substance. Serotonin reuptake inhibitors are generally known to have SERT binding inhibitory activity. Based on the assumption that the intensity of SERT binding inhibitory activity of the test substance indicates the intensity of reuptake inhibitory activity, affinity of the test substance to SERT was determined and the intensity of the activity was estimated (according to the method described in Marcusson, J.; Eriksson, K; J. Neurochemistry, 1988, 51 (5), 1477).
The rat cerebral cortex was homogenized in ice-cold 0.32 M sucrose. The suspension was centrifuged at 1,000×g for 10 minutes. The resulting supernatant was further centrifuged at 20,000×g for 20 minutes. The resulting precipitate was suspended in 50 mM Tris-HCl (pH 7.4) containing 120 mM NaCl and 5 mM KCl (hereinafter called suspension A) and centrifuged at 20,000×g for 20 minutes. The same operation was repeated once more. The finally obtained precipitate was suspended in a suspension A having a wet weight about 100 times that of the rat cerebral cortex to prepare a membrane fraction which was stored at −80° C. until use.
An incubation mixture (0.5 mL) contained a solution obtained by further diluting the test substance dissolved in DMSO (dimethyl sulfoxide) to a desired concentration (control: only DMSO) 500-fold with purified water (25 μL); a [^3H]paroxetine solution (final concentration: 0.05 nM) as a ligand (25 μL); and the membrane fraction prepared as described above (450 μL). The reaction was started by addition of the membrane fraction, followed by incubation at room temperature for 90 minutes. After the incubation, the mixture was filtered by suction through a GF/B filter using a cell harvester. The filter was washed with 50 mM Tris-HCl (pH 7.4) and then radioactivity of [^3H]paroxetine binding to SERT was measured using a liquid scintillation counter. Binding detected in the presence of 1 or 10 μM fluoxetine was defined as non-specific binding.

Structures can show the parent of a compound that is named as a salt.

T2 sequence (P31652 whole entry): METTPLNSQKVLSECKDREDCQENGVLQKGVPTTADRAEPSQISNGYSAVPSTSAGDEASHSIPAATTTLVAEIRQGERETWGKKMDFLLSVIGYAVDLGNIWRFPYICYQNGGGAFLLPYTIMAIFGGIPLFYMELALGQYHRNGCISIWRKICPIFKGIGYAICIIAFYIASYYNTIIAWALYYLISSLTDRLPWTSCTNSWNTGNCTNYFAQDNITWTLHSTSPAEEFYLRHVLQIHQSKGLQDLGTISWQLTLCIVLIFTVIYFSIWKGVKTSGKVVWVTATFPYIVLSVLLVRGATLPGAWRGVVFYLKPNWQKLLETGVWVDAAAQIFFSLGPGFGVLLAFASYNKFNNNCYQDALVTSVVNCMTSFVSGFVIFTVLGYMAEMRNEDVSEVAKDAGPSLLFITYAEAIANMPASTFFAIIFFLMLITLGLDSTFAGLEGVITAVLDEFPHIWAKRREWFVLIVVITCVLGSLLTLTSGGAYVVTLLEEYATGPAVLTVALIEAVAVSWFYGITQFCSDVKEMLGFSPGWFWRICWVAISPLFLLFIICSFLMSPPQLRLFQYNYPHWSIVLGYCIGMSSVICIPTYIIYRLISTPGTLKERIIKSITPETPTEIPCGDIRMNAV

On to `CN(C)Cc1c(OCc2ccc(F)cc2)ccc2c(CCC3CCN(CC4OCCO4)CC3)noc12` [Example 22, N,N-Dimethyl{3-{2-[1-(1,3-dioxolan-2-ylmethyl)piperidin-4-yl]ethyl}-6-(4-fluorobenzyloxy)benz[d]isoxazol-7-yl}methylamine dihydrobromide], for which the figures for the concentration for half-maximal inhibition (IC50) (on acetylcholine esterase; in experiment [1]) were 4.1 nM and 1.6 nM, respectively.

With `CN(C)Cc1c(OCC2CC2)ccc2c(CCC3CCN(Cc4ccccc4)CC3)noc12` [Example 39, N,N-Dimethyl{6-cyclopropylmethoxy-3-[2-(1-benzylpiperidin-4-yl)ethyl]benz[d]isoxazol-7-yl}methylamine dihydrochloride], the IC50 at acetylcholine esterase was 0.4 nM; in experiment [1] it was 13 nM.

For `CN(C)Cc1c(OCC2CC2)ccc2c(CCC3CCN(CC4(CO)CCCC4)CC3)noc12` [Example 51, {1-{4-{2-[6-Cyclopropylmethoxy-7-(N,N-dimethylaminomethyl)benz[d]isoxazol-3-yl]ethyl}piperidinomethyl}cyclopentyl}methanol dihydrochloride], the figures for the IC50 (on acetylcholine esterase; in experiment [1]) were 3.6 nM and 1.9 nM, respectively.

Consider `CNCc1c(OCc2ccc(F)cc2)ccc2c(CCC3CCN(CC4OCCO4)CC3)noc12` [Example 78, N-Methyl{3-{2-[1-(1,3-dioxolan-2-ylmethyl)piperidin-4-yl]ethyl}-6-(4-fluorobenzyloxy)benz[d]isoxazol-7-yl}methylamine dihydrochloride], for which the IC50 at acetylcholine esterase is 0.7 nM; in experiment [1], 1.1 nM.

Consider `CN(C)Cc1c(OCC2CC2)ccc2c(CCC3CCN(Cc4c[nH]c5ccc(F)cc45)CC3)noc12` [Example 88, N,N-Dimethyl{6-cyclopropylmethoxy-3-{2-[1-(5-fluoro-1H-indol-3-ylmethyl)piperidin-4-yl]ethyl}benz[d]isoxazol-7-yl}methylamine dihydrochloride], for which the IC50 on acetylcholine esterase was found to be 7.7 nM; in experiment [1], 5.3 nM.

Consider `CN(C)Cc1c(OCC2CC2)ccc2c(CCC3CCN(CC4CCCc5sccc54)CC3)noc12` (centres unmarked) [Example 93, N,N-Dimethyl{6-cyclopropylmethoxy-3-{2-[1-(4,5,6,7-tetrahydrobenzo[b]thiophen-4-ylmethyl)piperidin-4-yl]ethyl}benz[d]isoxazol-7-yl}methylamine dihydrochloride], for which the results for the IC50 (at acetylcholine esterase; in experiment [1]) were 73 nM and 8.9 nM, respectively.

`N#Cc1ccc(CN2CCC(CCc3noc4c(CN5CCC5)c(OCC5CC5)ccc34)CC2)s1` [Example 118, 5-{4-{2-[7-(Azetidin-1-ylmethyl)-6-cyclopropylmethoxybenz[d]isoxazol-3-yl]ethyl}piperidinomethyl}thiophene-2-carbonitrile fumarate]: the results for the IC50 (at acetylcholine esterase; in experiment [1]) were 12 nM and 10 nM, respectively.

As to `CN(C)Cc1c(-c2ccccc2)ccc2c(CCC3CCN(Cc4ccccc4)CC3)noc12` [Example 120, N,N-Dimethyl{3-[2-(1-benzylpiperidin-4-yl)ethyl]-6-phenylbenz[d]isoxazol-7-yl}methylamine dihydrochloride], the results for the concentration for half-maximal inhibition (IC50) (at acetylcholine esterase; in experiment [1]) were 1.3 nM and 0.9 nM, respectively.

On to `CN(C)Cc1c2ccccc2cc2c(CCC3CCN(Cc4ccc(C#N)s4)CC3)noc12` [Example 151, 5-{4-{2-[9-(N,N-Dimethylaminomethyl)naphtho[2,3-d]isoxazol-3-yl]ethyl}piperidinomethyl}thiophene-2-carbonitrile dihydrochloride], for which the IC50 at acetylcholine esterase was found to be 33 nM; in experiment [1], 54 nM.

Regarding `CNCc1c2ccccc2cc2c(CCC3CCN(Cc4ccc(C#N)s4)CC3)noc12` [Example 152, 5-{4-{2-[9-(N-Methylaminomethyl)naphtho[2,3-d]isoxazol-3-yl]ethyl}piperidinomethyl}thiophene-2-carbonitrile dihydrochloride], the values for the 50% inhibitory concentration (IC50) (on acetylcholine esterase; in experiment [1]) were 4.9 nM and 10 nM, respectively.

Regarding `CN(C)Cc1c(OCc2ccc(C#N)cc2)ccc2c(CCC3CCN(Cc4ccccc4)CC3)noc12` [Example 153, 4-{3-[2-(1-Benzylpiperidin-4-yl)ethyl]-7-(N,N-dimethylaminomethyl)benz[d]isoxazol-6-yloxymethyl}benzonitrile dihydrochloride], the half-maximal inhibitory concentration (IC50) on acetylcholine esterase was 0.4 nM; in experiment [1], 0.3 nM.

Regarding `CN(C)Cc1c(OCc2ccc(C#N)cc2)ccc2c(CCC3CCN(CC4OCCO4)CC3)noc12` [Example 154, 4-{7-(N,N-Dimethylaminomethyl)-3-{2-[1-(1,3-dioxolan-2-ylmethyl)piperidin-4-yl]ethyl}benz[d]isoxazol-6-yloxymethyl}benzonitrile fumarate], the values for the IC50 (at acetylcholine esterase; in experiment [1]) were 3 nM and 1 nM, respectively.

As for `CN(C)Cc1c(OCC2CC2)ccc2c(CCC3CCN(Cc4ccc(C#N)s4)CC3)noc12` [Example 155, 5-{4-{2-[6-Cyclopropylmethoxy-7-(N,N-dimethylaminomethyl)benz[d]isoxazol-3-yl]ethyl}piperidinomethyl}thiophene-2-carbonitrile dihydrochloride], the 50% inhibitory concentration (IC50) at acetylcholine esterase came out at 5 nM; in experiment [1], 5.3 nM.

With `CN(C)Cc1ccc2c(CCC3CCN(Cc4ccccc4)CC3)noc2c1OCC1CC1` [Example 178, N,N-Dimethyl{3-[2-(1-benzylpiperidin-4-yl)ethyl]-7-cyclopropylmethoxybenz[d]isoxazol-6-yl}methylamine dihydrochloride], the IC50 at acetylcholine esterase was 4.1 nM; in experiment [1], 62 nM.

As to `CN(C)Cc1c(N2CCCCC2)ccc2c(CCC3CCN(Cc4ccc(C#N)s4)CC3)noc12` [Example 210, 5-{4-{2-[7-(N,N-Dimethylaminomethyl)-6-piperidinobenz[d]isoxazol-3-yl]ethyl}piperidinomethyl}thiophene-2-carbonitrile dihydrochloride], the half-inhibitory concentration (IC50) amounted to 2.4 nM at acetylcholine esterase and 12 nM in experiment [1].

Regarding `CN(C)Cc1c(N2CCOCC2)ccc2c(CCC3CCN(Cc4ccc(C#N)s4)CC3)noc12` [Example 213, 5-{4-{2-[7-(N,N-Dimethylaminomethyl)-6-morpholinobenz[d]isoxazol-3-yl]ethyl}piperidinomethyl}thiophene-2-carbonitrile dihydrochloride], the IC50 on acetylcholine esterase was 3 nM; in experiment [1], 19 nM.
